Measurements taken from patent US8119170B2, “Herbal compositions and methods for enhancing vital energy and athletic performance” (priority 2008, dated 2012).

Experiments:
L6 rat skeletal cells [1] = test: SOD antioxidant assay, SOD activity of L6 cells under hypoxic conditions; type: cell-based; conditions: 80 μg/ml, hypoxic condition; vehicle 16.58% ± 0.31%; means ± SD
Method: Cells were homogenized in ice-cold phosphate buffer (50 mmol/L, pH 7.4) to make 10% w/v homogenate with a motor-driven Potter-Elvejhem glass homogenizer at 0-4° C. The homogenate will be then centrifuged at 300 g for 10 min at 4° C. to remove intact cells and debris. The remaining supernatant was divided into 2 parts for different enzyme assays. For SOD assays, the supernatant will be centrifuged at 2300 g for a further 10 min at 4° C. After centrifugation, the pellets will be discarded and the supernatants were used for the assessment of enzyme activity. The procedure was carried out on ice or at 0-4° C. Reagents for the assay were obtained through a commercially available SOD Assay Kit.
The samples were mixed and placed in a water bath at 37° C. for 40 min. A chromogenic agent (200 μl) was then added, the samples mixed, then left at room temperature for 10 min before absorbance at 550 nm was detected. The Inhibition ration was then calculated using the formula: Inhibition ratio=(ODn−OD1)/OD1×100%. […] The protein concentration was measured using the BCA protein quantitative assay.
After 10 μl was selected for use for the SOD assays, SOD activity assays were performed for the samples of the various treatment groups (20 μg/ml, 40 μg/ml, or 80 μg/ml of RG, Rhodiola Crenulata, or Ginkgo biloba, respectively, and 80 μg/ml of Vitamin C) where the sample volumes were as shown in Table 10. […]

L6 rat skeletal cells [2] = test: MTT assay, viability of L6 cells under hypoxic conditions; type: cell-based; conditions: 80 μg/ml, 12 h pretreatment, 1 h hypoxia; vehicle 27% ± 1.3%; means ± SD
Method: L6 cells were cultured in 96-well tissue culture plates (1×10^4 cell/well) with 10% FBS for 24 hours. Serum-free medium was then used for another 24 hours prior to treatment with RGC, Rhodiola crenulata extract, or Ginkgo biloba extract. Cell viability and proliferation were measured by the 3-(4,5-dimethylthiazol-2-yl)-2,5-diphenyltetrazolium bromide (MTT) and 5-bromo-2′-deoxyuridine (BrdU) (Roche Diagnostics, USA) incorporation assays, respectively.
The L6 cells were plated in 96-well plates (5000 cell/well) for 24 hours. Then the serum-free medium was used and cells incubated for another 12 hours. Sequentially, cells were pretreated with various concentrations (20 μg/ml, 40 μg/ml, 80 μg/ml) of RG, Rhodiola Crenulata, or Ginkgo biloba, respectively, or Vitamin C (80 μg/ml) for 12 hours, followed by exposure to an ischemic solution (EBSS) and placed in an anaerobic chamber (Diagnostic System) for 1 hour. The control cells were incubated without treatment for 1 hour. After 1 hour exposure to hypoxic and ischemic environments, 100 μl MTT (0.5 mg/ml in PBS) was added to each well and the cells were incubated at 37° C. for 4 h. The MTT solution was prepared by dissolving 250 mg of MTT in 50 ml PBS (0.01 mol/L, PH7.4) to prepare 0.5% MTT staining solution. The solution was then filtered through Millipore membrane and stored at 4° C. […]

SMILES: O=C1O[C@H]([C@@H](O)CO)C(O)=C1O [Vitamin C]
- SOD Enzymatic Activity (L6 rat skeletal cells [1]): 20.00% ± 0.08%
- Cell proliferation in hypoxic conditions (cell survival rate, MTT) (L6 rat skeletal cells [2]): 41% ± 3.2%
